Data on five compounds can be found in patent US20060110401A1, “Mixture of peptides from c and ns3 proteins of the hepatitis c virus and applications thereof” (priority 2002, published 2006).

Assay [1] deals with DR1. As to the kind of experiment: DR1.
Assay [2] deals with T1, HLA-DR15 (DRB1*1501) (Homo sapiens, UniProt P01903+P01911).
T1 construct: endogenous in cells; host or cells: homozygous EBV-transformed human B lymphocyte lines; immunopurified with antibody L243
As to the kind of experiment: biochemical. Format: binding. As to conditions: DRB1*1501; read-out: binds with good affinity to DR15.

For assay [3], the system named is DRB3. The assay can be described thus: DRB3.
Assay [4] has as its system DRB4. As to the kind of experiment: DRB4. An excerpt:
(§1) Table printed on a drawing sheet, Figure 2
Where the first naming reader finds the target: head: DRB4

Assay [5] deals with DR3. The assay can be described thus: DR3.
From the text: as §1
Where the first naming reader finds the target: head: DR3

Assay [6] has as its system DP402. The assay can be described thus: DP402.
Assay [7] deals with DR7. The assay can be described thus: DR7.
Assay [8] deals with DR11. The assay can be described thus: DR11.
From the text: as §1
Where the first naming reader finds the target: head: DR11

Assay [9] deals with DR4. As to the kind of experiment: DR4.
For assay [10], the system named is DR15. As to the kind of experiment: DR15.
Assay [11] deals with HLA-DR11 (DRB1*1101) (Homo sapiens, UniProt P01903+P01911, A100R/A169T/A87E/I96F/K41T/L162R/M171V/P40S/Q125H/Q178H/Q39Y/Q99D/R42S/S66Y/T262R/V115G/W38E). The assay can be described thus: biochemical. Format: binding. As to conditions: read-out: binds with good affinity to DR11.
HLA-DR11 (DRB1*1101), sequence (P01903 26-254 limits assumed, other chains not shown): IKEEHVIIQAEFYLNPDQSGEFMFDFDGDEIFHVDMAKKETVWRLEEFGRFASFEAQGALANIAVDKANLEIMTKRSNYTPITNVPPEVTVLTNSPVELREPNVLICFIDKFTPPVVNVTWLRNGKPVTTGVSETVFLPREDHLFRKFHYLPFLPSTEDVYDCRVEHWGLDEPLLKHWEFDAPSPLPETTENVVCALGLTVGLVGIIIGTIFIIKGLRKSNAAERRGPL
Assay [12] has as its system DP401. As to the kind of experiment: DP401.
Assay [13] has as its target T2, HLA-DRB4 (DRB4*0101) (Homo sapiens, UniProt P01903+P13762, G164S).
T2 construct: endogenous in cells; host or cells: homozygous EBV-transformed human B lymphocyte lines; immunopurified with antibody L243
The assay can be described thus: biochemical. Type of assay: binding. To be noted: read-out: binds with good affinity to DRB4.

Assay [14] has as its target HLA-DR7 (DRB1*0701) (Homo sapiens, UniProt P01903+P01911, A100R/A102G/A103Q/D57E/D86V/E43K/F76Y/K127E/L162R/M171V/P40G/Q125H/Q99D/R33Q/R42Y/R54Q/S133A/S66F/T210M/V115G/Y107V/Y59L/Y89S). As to the kind of experiment: biochemical. To be noted: read-out: binds with good affinity to DR7. Format: binding.
Assay [15] addresses T3, HLA-DR4 (DRB1*0401) (Homo sapiens, UniProt P01903+P01911, A100K/A169T/F76Y/I96L/K127E/L162R/M171V/N62H/P40V/Q125Y/R42H/S133A/S149N/S66Y/V115G/V209L/W38E).
T3 construct: endogenous in cells; host or cells: homozygous EBV-transformed human B lymphocyte lines; immunopurified with antibody L243
As to the kind of experiment: biochemical. Type of assay: binding. As to conditions: read-out: binds with good affinity to DR4.

Assay [16] addresses T4, HLA-DRB5 (DRB5*0101) (Homo sapiens, UniProt P01903+Q30154).
T4 construct: endogenous in cells; host or cells: homozygous EBV-transformed human B lymphocyte lines; immunopurified with antibody L243
The assay can be described thus: biochemical. Format: binding. As to conditions: read-out: binds with good affinity to DRB5.

Assay [17] concerns the target T5, HLA-DR1 (DRB1*0101) (Homo sapiens, UniProt P01903+P01911, A100R/D57E/F55L/F60I/F76Y/I96L/L162R/M171V/P40L/Q125E/R42F/V115G/Y59C).
T5 construct: endogenous in cells; host or cells: homozygous EBV-transformed human B lymphocyte lines; immunopurified with antibody L243
The assay can be described thus: biochemical. Format: binding. To be noted: for IC50: DRB1*0101.

The test system of assay [18] is DRB5. As to the kind of experiment: DRB5.
In assay [19] the target is HLA-DR13 (DRB1*1301) (Homo sapiens, UniProt P01903+P01911, A100E/A169T/K41T/L162R/M171V/P40S/Q125H/Q178H/Q39Y/Q99D/R42S/S66N/T262R/W38E/Y61H). As to the kind of experiment: biochemical. To be noted: read-out: binds with good affinity to DR13. Format: binding.
For assay [20], the system named is DR13. The assay can be described thus: DR13.
From the text: as §1
Where the first naming reader finds the target: head: DR13

Assay [21] relates to T lymphocytes derived from PBMCs from patients chronically infected with HCV. Type of assay: cell-based, human. As to conditions: supernatant 48 h, —: not detected.
Setting [22] is: read-out: binds with good affinity to DR1.

SMILES strings stand for the structures. Like-named read-outs stand apart in the source and are kept apart here. Residues, ends and D or L forms follow the SMILES beside them.

For the compound `CC[C@H](C)[C@H](NC(=O)[C@H](CCC(N)=O)NC(=O)[C@@H](NC(=O)[C@H](CCC(=O)O)NC(=O)CNC(=O)[C@H](CCC(=O)O)NC(=O)[C@@H](NC(=O)[C@H](CCC(N)=O)NC(=O)[C@H](CC(N)=O)NC(=O)[C@@H](N)CCCCN)C(C)C)C(C)C)C(=O)N[C@H](C(=O)N[C@@H](CO)C(=O)N[C@H](C(=O)N[C@@H](C)C(=O)N[C@@H](C)C(=O)N[C@@H](CCC(N)=O)C(=O)N[C@H](C(=O)N[C@@H](Cc1ccccc1)C(=O)N[C@@H](CC(C)C)C(=O)N[C@@H](C)C(=O)N[C@H](C(=O)O)[C@@H](C)O)[C@@H](C)O)[C@@H](C)O)C(C)C` [10N 1052-1072], the IC50 was 400 nM in [1]; below 1000 nM in assay [2]; 10000 nM in [3]; 400 nM in assay [4]; 2250 nM in assay [5]; 1180 nM in assay [6]. The IC50 was 7 nM in assay [7]; 200 nM in assay [8]; 24 nM in assay [9]; 300 nM in assay [10]; below 1000 nM in [11]; 2030 nM in assay [12]. The IC50 in assay [13] was below 1000 nM; in assay [14], below 1000 nM; in assay [15] it was below 1000 nM; in assay [16], below 1000 nM; in assay [17] (setting [22]) it was below 1000 nM; in assay [18], 19 nM.
For `CC[C@H](C)[C@H](NC(=O)[C@@H](NC(=O)[C@H](CC(=O)O)NC(=O)[C@H](C)NC(=O)[C@H](Cc1c[nH]cn1)NC(=O)[C@H](CCCNC(=N)N)NC(=O)[C@@H](NC(=O)[C@@H](NC(=O)[C@H](CC(C)C)NC(=O)[C@H](Cc1ccc(O)cc1)NC(=O)[C@H](CC(C)C)NC(=O)[C@H](CC(=O)O)NC(=O)[C@H](CO)NC(=O)[C@@H](N)CO)C(C)C)[C@@H](C)O)C(C)C)C(=O)N1CCC[C@H]1C(=O)N[C@H](C(=O)N[C@@H](CCCNC(=N)N)C(=O)N[C@@H](CCCNC(=N)N)C(=O)N[C@@H](CCCNC(=N)N)C(=O)NCC(=O)N[C@@H](CC(=O)O)C(=O)N[C@@H](CO)C(=O)N[C@@H](CCCNC(=N)N)C(=O)NCC(=O)N[C@@H](CO)C(=O)N[C@@H](CC(C)C)C(=O)N[C@@H](CC(C)C)C(=O)O)C(C)C` [13N 1127-1153], the IC50 in assay [1] was 700 nM; in assay [4], 2500 nM; in assay [6], 8710 nM; in [7], 17 nM; in assay [8] it was 17 nM; in assay [19], below 1000 nM. Further, the IC50 was 3500 nM in assay [9]; below 1000 nM in assay [11]; below 1000 nM in assay [14]; below 1000 nM in [16]; 300 nM in assay [20]; below 1000 nM in [17] (setting [22]). The compound further registered an IC50 in [18] of 500 nM.
With `CC[C@H](C)[C@H](NC(=O)CNC(=O)[C@@H](NC(=O)[C@H](C)NC(=O)[C@H](Cc1c[nH]cn1)NC(=O)CN)C(C)C)C(=O)N[C@@H](Cc1ccccc1)C(=O)N[C@@H](CCCNC(=N)N)C(=O)N[C@@H](C)C(=O)N[C@@H](C)C(=O)N[C@H](C(=O)N[C@@H](CS)C(=O)N[C@H](C(=O)N[C@@H](CCCNC(=N)N)C(=O)NCC(=O)N[C@H](C(=O)N[C@@H](C)C(=O)N[C@@H](CCCCN)C(=O)N[C@@H](C)C(=O)N[C@H](C(=O)N[C@@H](CC(=O)O)C(=O)N1CCC[C@H]1C(=O)O)C(C)C)C(C)C)[C@@H](C)O)C(C)C` [15N 1174-1195] (H-GHAVGIFRAAVCTRGVAKAVDP-OH; N-terminus and C-terminus assumed), the IC50 in [2] is below 1000 nM; in assay [5], 30000 nM; in assay [6], 2980 nM; in assay [9], 30 nM; in [10], 90 nM; in [11] it was below 1000 nM. The IC50 in [13] was below 1000 nM; in assay [15] it was below 1000 nM; in assay [16], below 1000 nM; in assay [20] it was 10000 nM; in [17] (competition with biotinylated tracer HA 306-318, read-out: IC50, binding to HLA-DR1), 3 nM; in [17] (setting [22]), below 1000 nM. This compound also came in with an IC50 in assay [18] of 20 nM. For the same compound, the figures for the IL10 in [21] (patient 067) and in assay [21] (patient 078) were 55 pg/mL and 43 pg/mL, respectively. Also, the “affinity for HLA-DR1 (in words)” value in assay [17] (legend of FIG. 4) is “high affinity”.
For `CC[C@H](C)[C@H](N)C(=O)N[C@@H](CCC(=O)O)C(=O)N[C@@H](CCC(=O)O)C(=O)N[C@H](C(=O)N[C@@H](C)C(=O)N[C@@H](CC(C)C)C(=O)N[C@@H](CO)C(=O)N[C@H](C(=O)N[C@H](C(=O)NCC(=O)N[C@@H](CCC(=O)O)C(=O)N[C@H](C(=O)N1CCC[C@H]1C(=O)N[C@@H](Cc1ccccc1)C(=O)N[C@@H](Cc1ccc(O)cc1)C(=O)NCC(=O)N[C@@H](CCCCN)C(=O)N[C@@H](C)C(=O)N[C@H](C(=O)N1CCC[C@H]1C(=O)N[C@@H](CC(C)C)C(=O)N[C@@H](CCC(=O)O)C(=O)N[C@H](C(=O)N[C@H](C(=O)N[C@@H](CCCCN)C(=O)NCC(=O)O)[C@@H](C)CC)C(C)C)[C@@H](C)CC)[C@@H](C)CC)[C@@H](C)O)[C@@H](C)O)C(C)C` [22N 1362-1387] (H-IEEVALSTTGEIPFYGKAIPLEVIKG-OH; N-terminus and C-terminus assumed), the IC50 in assay [2] was below 1000 nM; in assay [3], 32500 nM; in assay [4], 4000 nM; in assay [5] it was 21200 nM; in assay [6], 10300 nM; in assay [7], 20 nM. Further, the IC50 in [8] is 3000 nM; in assay [9] it was 1620 nM; in assay [10], 425 nM; in assay [12] it was 8000 nM; in [14] it was below 1000 nM; in [16], below 1000 nM. Further, the IC50 in [17] (setting [22]) is below 1000 nM; in assay [18], 200 nM.
Consider `CC[C@H](C)[C@H](NC(=O)CNC(=O)[C@H](Cc1c[nH]cn1)NC(=O)[C@H](C)NC(=O)[C@H](CCCCN)NC(=O)[C@H](CO)NC(=O)[C@H](CCSC)NC(=O)[C@H](Cc1ccc(O)cc1)NC(=O)[C@H](C)NC(=O)CNC(=O)[C@H](Cc1ccccc1)NC(=O)CNC(=O)[C@H](CC(C)C)NC(=O)[C@@H](NC(=O)[C@H](C)NC(=O)[C@H](C)NC(=O)[C@@H](NC(=O)[C@H](CO)NC(=O)[C@@H]1CCCN1C(=O)[C@H](CC(N)=O)NC(=O)[C@H](CC(C)C)NC(=O)[C@@H](NC(=O)[C@H](CC(C)C)NC(=O)[C@@H](NC(=O)[C@H](CCCCN)NC(=O)[C@H](Cc1ccc(O)cc1)NC(=O)CNC(=O)[C@H](CCC(N)=O)NC(=O)[C@H](C)N)C(C)C)C(C)C)C(C)C)[C@@H](C)O)C(=O)N[C@@H](CC(=O)O)C(=O)O` [18N 1246-1275], for which the IC50 in assay [1] was 1 nM; in assay [2], below 1000 nM; in assay [3] it was above 30000 nM; in [4] it was 2500 nM; in [5] it was 2500 nM; in [6] it was 11400 nM. Also, the IC50 in assay [7] was 15 nM; in assay [8], 40 nM; in assay [19], below 1000 nM; in assay [9], 5 nM; in assay [10], 58 nM; in assay [11], below 1000 nM. In addition, the IC50 in assay [12] is above 100000 nM; in [14], below 1000 nM; in [15] it was below 1000 nM; in [20], 900 nM; in assay [17] (setting [22]) it was below 1000 nM.
